Laboratory results reported in PubChem BioAssay (NCI).
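Tested at 5 concentrations; 48 h exposure; 96-well plates; endpoints linearly interpolated, else capped at highest concentration. The concentration for 50% growth inhibition is given as GI50. TGI denotes the concentration required for complete inhibition of growth.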

Key:
Test in all cases: inhibition of tumour cell growth, NCI panel, 48 h
[1] = system: 786-0 renal
[2] = system: A498 renal
[3] = system: A549 NSCLC
[4] = system: ACHN renal
[5] = system: BT-549 breast
[6] = system: CAKI-1 renal
[7] = system: CCRF-CEM leukemia
[8] = system: COLO 205 colon
[9] = system: DU-145 prostate
[10] = system: EKVX NSCLC
[11] = system: HCC-2998 colon
[12] = system: HCT-116 colon
[13] = system: HCT-15 colon
[14] = system: HL-60(TB) leukemia
[15] = system: HOP-62 NSCLC
[16] = system: HOP-92 NSCLC
[17] = system: HS 578T breast
[18] = system: HT29 colon
[19] = system: IGROV1 ovarian
[20] = system: K-562 leukemia
[21] = system: KM12 colon
[22] = system: LOX IMVI melanoma
[23] = system: M14 melanoma
[24] = system: MALME-3M melanoma
[25] = system: MCF7 breast
[26] = system: MDA-MB-231 breast
[27] = system: MDA-MB-435
[28] = system: MDA-MB-468 breast
[29] = system: MOLT-4 leukemia
[30] = system: NCI-H226 lung
[31] = system: NCI-H23 lung
[32] = system: NCI-H460 lung
[33] = system: NCI-H522 lung
[34] = system: NCI/ADR-RES ovarian
[35] = system: OVCAR-3 ovarian
[36] = system: OVCAR-4 ovarian
[37] = system: OVCAR-5 ovarian
[38] = system: OVCAR-8 ovarian
[39] = system: PC-3 prostate
[40] = system: RPMI-8226 leukemia
[41] = system: RXF 393 renal
[42] = system: SF-268 CNS
[43] = system: SF-295 CNS
[44] = system: SF-539 CNS
[45] = system: SK-MEL-2 melanoma
[46] = system: SK-MEL-28 melanoma
[47] = system: SK-MEL-5 melanoma
[48] = system: SK-OV-3 ovarian
[49] = system: SN12C renal
[50] = system: SNB-19 CNS
[51] = system: SNB-75 CNS
[52] = system: SR leukemia
[53] = system: SW-620 colon
[54] = system: T-47D breast
[55] = system: TK-10 renal
[56] = system: U251 CNS
[57] = system: UACC-257 melanoma
[58] = system: UACC-62 melanoma
[59] = system: UO-31 renal

O=C(N/N=C/c1ccc(Cl)cc1)c1ccc(OCc2nc3ccc(Cl)cc3[nH]2)cc1 showed a GI50 [1] of 4.34 µM, a TGI [1] of 16.9 µM and a GI50 [2] of 21.4 µM. The TGI [2] was 38.4 µM, the GI50 [3] was 12 µM and the TGI [3] was 34.2 µM. The GI50 [4] was 14.3 µM, the TGI [4] was 27.8 µM and the GI50 [5] was 19.5 µM. It also gave a TGI [5] of 41.6 µM, a GI50 [6] of 17 µM and a TGI [6] of 34 µM. The GI50 [7] was 6.78 µM, the TGI [7] was 37.1 µM and the GI50 [8] was 15.3 µM. The TGI [8] was 32.1 µM, the GI50 [9] was 10.8 µM and the TGI [9] was 25.3 µM. For the same compound, the GI50 [10] was 14.9 µM, the TGI [10] was 28.9 µM and the GI50 [11] was 11.5 µM. The TGI [11] was 25.8 µM, the GI50 [12] was 4.46 µM and the TGI [12] was 19.2 µM. For the same compound, the GI50 [13] was 8.27 µM, the TGI [13] was 21.9 µM and the GI50 [14] was 26.4 µM. The TGI [14] was greater than 100 µM, the GI50 [15] was 15.7 µM and the TGI [15] was 31.6 µM. The GI50 [16] was 13.4 µM, the TGI [16] was 30.8 µM and the GI50 [17] was 11.2 µM. It also gave a TGI [17] of 50.9 µM, a GI50 [18] of 15.2 µM and a TGI [18] of 45.5 µM. The GI50 [19] was 11.6 µM, the TGI [19] was 24.2 µM and the GI50 [20] was 3.81 µM. The TGI [20] was 21.3 µM, the GI50 [21] was 20.5 µM and the TGI [21] was 66 µM. It also gave a GI50 [22] of 6.22 µM, a TGI [22] of 19.1 µM and a GI50 [23] of 10.2 µM. For the same compound, the TGI [23] was 25.3 µM, the GI50 [24] was 11.7 µM and the TGI [24] was 24.5 µM. The GI50 [25] was 10 µM, the TGI [25] was 23.2 µM and the GI50 [26] was 10.8 µM. For the same compound, the TGI [26] was 23.2 µM, the GI50 [27] was 14.6 µM and the TGI [27] was 31 µM. The GI50 [28] was 11.6 µM, the TGI [28] was 24.4 µM and the GI50 [29] was 7.51 µM. The TGI [29] was 27.3 µM, the GI50 [30] was 14.1 µM and the TGI [30] was 30.2 µM. The GI50 [31] was 6.59 µM, the TGI [31] was 19.7 µM and the GI50 [32] was 4.68 µM. It also gave a TGI [32] of 16.8 µM, a GI50 [33] of 19.7 µM and a TGI [33] of 41.6 µM. The GI50 [34] was 15.9 µM, the TGI [34] was 68 µM and the GI50 [35] was 18 µM. For the same compound, the TGI [35] was 42.3 µM, the GI50 [36] was 15.5 µM and the TGI [36] was 31.4 µM. It also gave a GI50 [37] of 14.5 µM, a TGI [37] of 32.7 µM and a GI50 [38] of 18.1 µM. It also gave a TGI [38] of 55.5 µM, a GI50 [39] of 7.48 µM and a TGI [39] of 24.9 µM. For the same compound, the GI50 [40] was 16.6 µM, the TGI [40] was greater than 100 µM and the GI50 [41] was 10.5 µM. The TGI [41] was 24.4 µM, the GI50 [42] was 21.2 µM and the TGI [42] was 53.5 µM. The GI50 [43] was 12 µM, the TGI [43] was 24.4 µM and the GI50 [44] was 16.6 µM. The TGI [44] was 30.6 µM, the GI50 [45] was 18.6 µM and the TGI [45] was 40 µM. For the same compound, the GI50 [46] was 12.5 µM, the TGI [46] was 25.3 µM and the GI50 [47] was 15.1 µM. The TGI [47] was 30.1 µM, the GI50 [48] was 16 µM and the TGI [48] was 32.8 µM. For the same compound, the GI50 [49] was 12.7 µM, the TGI [49] was 25.8 µM and the GI50 [50] was 15.4 µM. It also gave a TGI [50] of 29.5 µM, a GI50 [51] of 5.23 µM and a TGI [51] of 19.8 µM. It also gave a GI50 [52] of 0.62 µM, a TGI [52] greater than 100 µM and a GI50 [53] of 6.79 µM. The TGI [53] was 23 µM, the GI50 [54] was 19.3 µM and the TGI [54] was 42.9 µM. The GI50 [55] was 19.5 µM, the TGI [55] was 38.3 µM and the GI50 [56] was 14.2 µM. The TGI [56] was 33.1 µM, the GI50 [57] was 21.1 µM and the TGI [57] was 46.6 µM. The GI50 [58] was 12.6 µM, the TGI [58] was 25.4 µM and the GI50 [59] was 13.1 µM. The TGI [59] was 26.3 µM.
